Test results taken from patent US5952000A, “Fatty acid esters of lactic acid salts as permeation enhancers” (TheraTech, Inc., priority 1997, dated 1999).

Experiments:
[1] = In vitro skin flux, diclofenac from adhesive matrix systems (Example 8); assay type: in vitro ADME, human
Procedure: The effect of fatty acid lactylate salts on the permeation of a model acidic drug from some copolymer adhesive matrix systems was evaluated using diclofenac, a non-steroidal anti-inflammatory. The following matrix systems were prepared to test the effect of fatty acid lactylate salts on the permeation of this acidic compound from copolymer adhesives: (a) Diclofenac acid at 1.8% (w/w) in Durotak 87-2516 (National Starch and Chemical, New Jersey), a solvent based acrylic adhesive, at 92.8% (w/w) (Formula 8-A); (b) sodium diclofenac at 2.0% (w/w) in Nacor 72-9965 (National Starch and Chemical Company, New Jersey), an aqueous emulsion based acrylic adhesive, at 98% (w/w) (Formula 8-C); sodium diclofenac at 2.0% (w/w) and Robond PS-20 (Rohm and Haas, Philadelphia, Pa.) an aqueous emulsion based acrylic adhesive, at 93.6% (w/w) with polyvinylpyrrolidone (PVP, Kollidon 90, BASF, New Jersey) at 2.0% (w/w) as a thickening agent (Formula 8-E).

[2] = In vitro skin flux, testosterone from saturated aqueous solution (Example 1)
Procedure: (§1) In vitro skin flux studies were conducted using human cadaver epidermal membrane in modified Franz non-jacketed diffusion cells. […] This method involves the exposure of the full-thickness skin to water at 60° C. for a time period of 60 seconds. After this period, the epidermal membrane was gently peeled off the dermis and stored for later use in aluminum foil at -5° C.
Permeation experiments with aqueous solutions were performed using pre-saturated drug solutions containing excess drug solid (infinite dose). Prior to skin permeation experiments, the epidermal membrane was allowed to hydrate over night as described above. […]
(§2) The following sampling procedure was used for all dosage forms. At predetermined sampling time points, the entire contents of the receiver compartment were collected for drug quantitation and the receiver compartment was filled with fresh solution, taking care to eliminate any air bubbles at the skin/solution interface. The cumulative amount of drug permeated per unit area at any time t(Qt, μg/cm^2) was determined as follows: [formula] where CN is the concentration (μg/ml) of the drug in the receiver sample for the corresponding sample time, V is the volume of fluid in the receiver chamber (~6.3 cm^3), and A is the diffusional area of the cell (0.64 cm^2). […]

[3] = In vitro skin flux, testosterone from hydroalcoholic gel (Example 2)
Procedure: as §1
Permeation experiments with hydroalcoholic gels were performed using finite occluded doses. The occluded dose is an appropriate in vitro model for the application of a transdermal patch drug delivery system containing a liquid or gel reservoir.
Occluded dosing experiments were set-up according to the following procedure. […]
as §2

[4] = In vitro skin flux, estradiol from organic solvent based adhesive matrix (Example 3); assay type: in vitro ADME, human; details: organic solvent based acrylic PSA; vs free acid form
Procedure: Pressure sensitive adhesive matrix systems prepared according to the following steps. First, the solids content of the adhesive solution (water or organic solvent based) was determined by placing a known weight of solution in a weighed aluminum dish and evaporating the solvents overnight in a 70° C. convection oven. The solid adhesive content of the solution was calculated by dividing the adhesive solid weight after drying by the initial total solution weight. Next, a weighed quantity of adhesive solution was added to a glass bottle and the drug substance, permeation enhancer, and other excipients were weighed and added to the adhesive solution in a quantity necessary to achieve the desired dry matrix film composition. […]
The following sampling procedure was used for all dosage forms. At predetermined sampling time points, the entire contents of the receiver compartment were collected for drug quantitation and the receiver compartment was filled with fresh solution, taking care to eliminate any air bubbles at the skin/solution interface. The cumulative amount of drug permeated per unit area at any time t(Qt, μg/cm^2) was determined as follows: [formula] where CN is the concentration (μg/ml) of the drug in the receiver sample for the corresponding sample time, V is the volume of fluid in the receiver chamber (~6.3 cm^3), and A is the diffusional area of the cell (0.64 cm^2).

[5] = In vitro skin flux, clonidine from adhesive matrix systems (Example 7); assay type: in vitro ADME, human
Procedure: Permeation enhancement by a fatty acid lactylate salt was also evaluated with the basic antihypertensive drug clonidine in both free base and HCl acid addition salt forms. […] (Formulas 7-B, 7-D, 7-F and 7-H respectively).

[6] = In vitro skin flux, buspirone free base from organic solvent based acrylic adhesive (Example 5); assay type: in vitro ADME, human; details: organic solvent based acrylic PSA
Procedure: Permeation enhancement of the potassium salt form of lauroyl lactylic acid using buspirone free base as a model drug was evaluated in an organic solvent based acrylic pressure sensitive adhesive.

[7] = In vitro skin flux, buspirone HCl from aqueous emulsion based acrylic PSA (Example 4); assay type: in vitro ADME, human
Procedure: Permeation enhancement of the potassium salt form of lauroyl lactylic acid (R.I.T.A. Corp., Woodstock, Ill.) in an aqueous emulsion based acrylic pressure sensitive adhesive (PSA) was evaluated using buspirone HCl as a model drug.

| Compound | enhancement by free acid form compared with Formulas 8-D and 8-F (in words) ([1]; aqueous emulsion based adhesives, "will show") | enhancement by free acid form compared with Formula 8-B (in words) ([1]; solvent based adhesive, "will show") | permeation enhancement (in words) [2] | permeation enhancement (in words) [3] | effectiveness as permeation enhancer (in words) [4] | increase of clonidine permeation over unenhanced counterpart ([5]; aqueous emulsion based matrix systems, Tables 7-1, 7-2, 7-3) | effectiveness as enhancer (in words) ([5]; clonidine HCl, aqueous emulsion based matrix systems) | effectiveness as enhancer (in words) ([5]; clonidine base, organic solvent based adhesive matrix, Table 7-4) | increase in permeation, acid form of diclofenac ([1]; […] sodium lauroyl lactylate, Table 8-1) | effectiveness as enhancer (in words) ([1]; all of the matrix systems tested) | effectiveness as permeation enhancer (in words) [6] | effectiveness as permeation enhancer (in words) [7] |
| --- | --- | --- | --- | --- | --- | --- | --- | --- | --- | --- | --- | --- |
| CCCCCCCCCCCC(=O)OC(C)C(=O)O (centres unmarked) [lauroyl lactylic acid, reference compound] | significant reduction in enhancement | somewhat comparable results | significant permeation enhancement | significant permeation enhancement | – | – | – | – | – | – | – | – |
| CCCCCCCCCCCC(=O)OC(C)C(=O)OC(C)C(=O)[O-].[Na+] (centres unmarked) [sodium lauroyl lactylate] | – | – | significant permeation enhancement | significant permeation enhancement | less effective as a permeation enhancer than the free acid form | about two fold | consistently effective enhancer | not an effective enhancer | about 50% | consistently effective enhancer | – | – |
| potassium lauroyl lactylate | – | – | – | – | – | – | – | – | – | – | not an effective permeation enhancers | unexpectedly effective permeation enhancer |
